The record followed here is patent publication US20220017512A1 (SHANGHAI ENNOVABIO PHARMACEUTICALS CO., LTD., priority 2018, published 2022).

What is called IC50 is the point on the concentration scale where inhibition reaches its midpoint.

Assay type in all cases: biochemical
One test addresses T1, Recombinant human TRKC (Homo sapiens, UniProt Q16288).
T1 construct: purchased Carna Biosciences
The test is described as follows: In vitro activity test on TRKC kinase (HTRF KinEASE TK). To be noted: 25.64 μM ATP, 40 min. The procedure:
(§1) Biological Test Example 1 In Vitro Activity Test on TRKA, TRKB, TRKC Kinase
(§2) Recombinant human TRKA, TRKB, TRKC proteins were purchased from Carna Biosciences. HTRF KinEASE TK kit was purchased from Cisbio Bioassays. Synergy Neo 2 of Biotek was used to read the plate.
(§3) The tested compound was subjected to 3-fold serial dilution to reach a final concentration of 1 μM to 0.05 nM (10 concentrations), duplicates for each concentration; and the DMSO concentration in the detection reaction was 1%.
0.037 ng/μL TRKC protein kinase, 1 μM TK Substrate-biotin polypeptide substrate, 25.64 μM ATP, 1× enzymatic buffer, 5 mM MgCl2, and 1 mM DTT. The detection plate was White Proxiplate 384-Plus plate (PerkinElmer), and incubated at room temperature for 40 min, and the assay volume was 10 μL.
(§4) 10 μL of detection reagent was added to the plate (containing 0.125 μM SA-XL665 and 5 μL 1×TK-Antibody) and incubated overnight at room temperature, and Synergy Neo 2 was used to read the plate.
(§5) The 665/620 Ratio was converted according to the following formula into inhibition rate (%)=(1−Ratiotest/Ratiomax)×100%. Ratiomax was a positive control without tested compound, and Ratiotest was the value of each concentration of different compounds. IC50 (nM) data was obtained by 4 parameter curve fitting (see Table 1).
In general terms: TR-FRET usually uses a lanthanide donor and a delayed reading to cut background.

The target in another test is T2, Recombinant human TRKA (Homo sapiens, UniProt P04629).
T2 construct: purchased Carna Biosciences
T2 sequence (P04629 33-796): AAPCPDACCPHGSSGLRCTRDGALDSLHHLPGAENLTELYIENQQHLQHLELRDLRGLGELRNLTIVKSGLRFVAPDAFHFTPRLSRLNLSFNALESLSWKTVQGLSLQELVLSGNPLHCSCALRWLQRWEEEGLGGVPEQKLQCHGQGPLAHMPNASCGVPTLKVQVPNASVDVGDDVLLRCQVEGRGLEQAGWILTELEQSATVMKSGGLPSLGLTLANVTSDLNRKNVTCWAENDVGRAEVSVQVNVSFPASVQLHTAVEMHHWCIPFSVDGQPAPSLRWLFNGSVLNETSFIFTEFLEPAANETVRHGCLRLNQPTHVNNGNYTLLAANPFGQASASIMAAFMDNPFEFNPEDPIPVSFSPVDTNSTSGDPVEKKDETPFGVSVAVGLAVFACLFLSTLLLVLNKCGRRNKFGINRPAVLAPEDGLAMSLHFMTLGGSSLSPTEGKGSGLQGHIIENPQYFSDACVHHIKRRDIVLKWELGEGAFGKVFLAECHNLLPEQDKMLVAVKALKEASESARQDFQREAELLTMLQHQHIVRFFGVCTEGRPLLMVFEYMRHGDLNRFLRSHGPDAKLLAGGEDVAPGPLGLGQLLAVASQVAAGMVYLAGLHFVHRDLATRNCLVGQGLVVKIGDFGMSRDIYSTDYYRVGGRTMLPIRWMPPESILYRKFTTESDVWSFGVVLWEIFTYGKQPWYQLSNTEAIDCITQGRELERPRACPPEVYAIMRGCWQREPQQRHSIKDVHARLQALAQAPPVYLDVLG
The test is described as follows: In vitro activity test on TRKA kinase (HTRF KinEASE TK). The following applies: 14.68 μM ATP, 40 min. The procedure:
as §1, §2, §3
0.2 ng/μL TRKA protein kinase, 1 μM TK Substrate-biotin polypeptide substrate, 14.68 μM ATP, 1× enzymatic buffer, 5 mM MgCl2, and 1 mM DTT. The detection plate was White Proxiplate384-Plus plate (PerkinElmer), and incubated at room temperature for 40 min, and the assay volume was 10 μL.
as §4, §5

Test [1] deals with T3, recombinant human TRKA (G595R) (Homo sapiens, UniProt P04629, G595R).
T3 construct: purchased SignalChem
T3 sequence (P04629 33-796 G595R): as the sequence (P04629 33-796) above, with G563R counted along it
The test is described as follows: In vitro activity test on mutant TRKA (G595R) (HTRF KinEASE TK). The following applies: 4.5 μM ATP, 30 min. Here is the method: (§6) Biological Test Example 2 In Vitro Activity Test on Mutant TRKA (G595R), TRKA (G667C) and TRKC (G623R)
(§7) The recombinant human TRKA (G595R), TRKA (G667C) and TRKC (G623R) proteins were purchased from SignalChem. HTRF kinEASE TK kit was purchased from CisbioBioassays. Synergy Neo 2 of Biotek was used to read the plate.
(§8) The tested compound was subjected to 4-fold serial dilution to reach a final concentration of 1 μM to 0.004 nM (10 concentrates), duplicates for each concentration; and 1% DMSO was present in the detection reaction.
0.12 ng/μL TRKA (G595R) kinase, 1 μM TK Substrate-biotin polypeptide substrate, 4.5 μM ATP, 1× enzymatic buffer, 5 mM MgCl2, and 1 mm DTT. The detection plate was White Proxiplate384-Plus plate (PerkinElmer), and incubated at room temperature for 30 min, and the assay volume was 10 μL.
as §4
(§9) The value of 665/620 Ratio minus the value of negative control wells without enzyme, then the obtained value was converted according to the following formula into inhibition rate (%)=(1−Ratiotest/Ratiomax)×100%. Ratiomax was a positive control without tested compound, and Ratiotest was the value of each concentration of different compounds. IC50 (nM) data was obtained by 4 parameter curve fitting (see Table 1).

Test [2] deals with T4, recombinant human TRKA (G667C) (Homo sapiens, UniProt P04629, G667C).
T4 construct: purchased SignalChem
T4 sequence (P04629 33-796 G667C): as the sequence (P04629 33-796) above, with G635C counted along it
Description: In vitro activity test on mutant TRKA (G667C) (HTRF KinEASE TK). The following applies: 5.5 μM ATP, 30 min. The procedure: as §6, §7, §8
0.026 ng/μL TRKA (G667C) kinase, 1 μM TK Substrate-biotin polypeptide substrate, 5.5 μm ATP, 1× enzymatic buffer, 5 mM MgCl2, and 1 mM DTT. The detection plate was White Proxiplate 384-Plus plate (PerkinElmer), and incubated at room temperature for 30 min, the assay volume was 10 μL.
as §4, §9

Another test has as its target T5, Recombinant human TRKB (Homo sapiens, UniProt Q16620).
T5 construct: purchased Carna Biosciences
Description: In vitro activity test on TRKB kinase (HTRF KinEASE TK). To be noted: 4.77 μM ATP, 50 min. The procedure: as §1, §2, §3
0.037 ng/μL TRKB protein kinase, 1 μM TK Substrate-biotin polypeptide substrate, 4.77 μM ATP, 1× enzymatic buffer, 5 mM MgCl2, and 1 mM DTT. The detection plate was White Proxiplate 384-Plus plate (PerkinElmer), and incubated at room temperature for 50 min, and the assay volume was 10 μL.
as §4, §5

T1 sequence (Q16288 32-839): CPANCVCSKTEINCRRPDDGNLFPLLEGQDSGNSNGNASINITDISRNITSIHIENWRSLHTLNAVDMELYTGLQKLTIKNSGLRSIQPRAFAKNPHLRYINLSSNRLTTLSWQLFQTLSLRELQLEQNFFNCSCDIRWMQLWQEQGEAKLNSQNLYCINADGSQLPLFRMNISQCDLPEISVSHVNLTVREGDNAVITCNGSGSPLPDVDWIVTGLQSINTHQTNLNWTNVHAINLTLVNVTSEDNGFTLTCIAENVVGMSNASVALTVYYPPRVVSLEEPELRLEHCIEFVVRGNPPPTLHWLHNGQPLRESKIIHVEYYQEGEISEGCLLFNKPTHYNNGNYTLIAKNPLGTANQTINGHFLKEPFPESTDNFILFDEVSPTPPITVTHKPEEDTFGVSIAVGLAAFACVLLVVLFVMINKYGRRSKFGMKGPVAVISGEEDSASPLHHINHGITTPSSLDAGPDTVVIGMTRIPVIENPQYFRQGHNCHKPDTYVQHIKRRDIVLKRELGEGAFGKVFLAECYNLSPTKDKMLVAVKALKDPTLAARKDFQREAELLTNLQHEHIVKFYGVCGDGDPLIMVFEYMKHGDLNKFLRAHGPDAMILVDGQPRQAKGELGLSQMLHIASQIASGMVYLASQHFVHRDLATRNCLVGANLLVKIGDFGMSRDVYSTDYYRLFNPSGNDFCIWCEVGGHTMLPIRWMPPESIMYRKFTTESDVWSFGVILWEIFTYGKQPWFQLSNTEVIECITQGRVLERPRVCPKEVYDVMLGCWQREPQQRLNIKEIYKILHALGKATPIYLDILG
T5 sequence (Q16620 32-822): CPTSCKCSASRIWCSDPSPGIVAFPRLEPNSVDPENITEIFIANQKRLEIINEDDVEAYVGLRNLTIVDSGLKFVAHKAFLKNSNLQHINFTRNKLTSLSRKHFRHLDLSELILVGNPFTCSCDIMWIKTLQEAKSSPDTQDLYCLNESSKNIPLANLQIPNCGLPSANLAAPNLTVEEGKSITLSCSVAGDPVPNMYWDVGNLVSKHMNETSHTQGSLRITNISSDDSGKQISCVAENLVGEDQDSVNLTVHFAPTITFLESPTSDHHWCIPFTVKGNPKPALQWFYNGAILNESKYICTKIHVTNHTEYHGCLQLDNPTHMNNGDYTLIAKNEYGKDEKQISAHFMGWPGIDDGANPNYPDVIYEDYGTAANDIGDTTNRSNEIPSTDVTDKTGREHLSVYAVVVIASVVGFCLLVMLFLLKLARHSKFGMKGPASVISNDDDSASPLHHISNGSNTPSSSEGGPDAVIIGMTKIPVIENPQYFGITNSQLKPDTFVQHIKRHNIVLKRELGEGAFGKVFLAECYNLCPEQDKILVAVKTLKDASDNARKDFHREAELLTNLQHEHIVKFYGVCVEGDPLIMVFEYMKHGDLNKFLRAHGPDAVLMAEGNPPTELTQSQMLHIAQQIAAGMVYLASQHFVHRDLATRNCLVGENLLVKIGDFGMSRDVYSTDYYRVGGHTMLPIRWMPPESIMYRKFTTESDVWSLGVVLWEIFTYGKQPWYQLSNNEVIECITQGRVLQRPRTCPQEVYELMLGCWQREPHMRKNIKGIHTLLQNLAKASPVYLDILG

As to `OC1CCC(Nc2ccnc3ccc(N4C[C@@H](F)C[C@@H]4c4cc(F)ccc4F)nc23)C1` (stereo partly drawn) [Example 2, 3-((6-((2R,4S)-2-(2,5-difluorophenyl)-4-fluoropyrrolidin-1-yl)-1,5-naphthyridin-4-yl)amino)cyclopentan-1-ol], the IC50 (at Recombinant human TRKC; on Recombinant human TRKA; in test [1]; in test [2]; on Recombinant human TRKB) was less than 10 nM throughout.

Turning to `NC(=O)c1ccnc2ccc(N3CCC[C@@H]3c3cc(F)ccc3F)nc12` [Example 10, (R)-6-(2-(2,5-difluorophenyl)pyrrolidin-1-yl)-1,5-naphthyridin-4-carboxamide], the IC50 at Recombinant human TRKC was less than 1 nM; on Recombinant human TRKA it was less than 1 nM; in test [1] it was less than 1 nM; in test [2], less than 100 nM; on Recombinant human TRKB, less than 1 nM.

Take `Fc1ccc(F)c([C@H]2C[C@H](F)CN2c2ccc3nccc(-c4cnn(C5CCNCC5)c4)c3n2)c1` [Example 11, 2-((2R,4S)-2-(2,5-difluorophenyl)-4-fluoropyrrolidin-1-yl)-8-(1-(piperidin-4-yl)-1H-pyrizol-4-yl)-1,5-naphthyridine]: the IC50 (at Recombinant human TRKC; on Recombinant human TRKA; in test [1]; in test [2]; on Recombinant human TRKB) was less than 1 nM throughout.

Take `Fc1ccc(F)c([C@H]2C[C@H](F)CN2c2ccc3nccc(-c4cnn(C5CCOCC5)c4)c3n2)c1` [Example 12, 2-((2R,4S)-2-(2,5-difluorophenyl)-4-fluoropyrrolidin-1-yl)-8-(1-(tetrahydro-2H-pyran-4-yl)-1H-pyrazol-4-yl)-1,5-naphthyridine]: the IC50 (at Recombinant human TRKC; at Recombinant human TRKA; in test [1]; in test [2]; at Recombinant human TRKB) was less than 1 nM each time.

For `CN1CCC(n2cc(-c3ccnc4ccc(N5C[C@@H](F)C[C@@H]5c5cc(F)ccc5F)nc34)cn2)CC1` [Example 13, 2-((2R,4S)-2-(2,5-difluorophenyl)-4-fluoropyrrolidin-1-yl)-8-(1-(1-methylpiperidin-4-yl)-1H-pyrazol-4-yl)-1,5-naphthyridine], the IC50 is less than 1 nM on Recombinant human TRKC; less than 1 nM on Recombinant human TRKA; less than 1 nM in test [1]; less than 10 nM in test [2]; less than 1 nM at Recombinant human TRKB.

Regarding `CC1(O)CCN(c2ncc(-c3ncnc4ccc(N5C[C@@H](F)C[C@@H]5c5cc(F)ccc5F)nc34)cn2)C1` (stereo partly drawn) [Example 85, 1-(5-(6-((2R,4S)-2-(2,5-difluorophenyl)-4-fluoropyrrolidin-1-yl)pyrido[3,2-d]pyrimidine-4-yl)pyrimidin-2-yl)-3-methylpyrrolidin-3-ol], the IC50 is less than 1 nM at Recombinant human TRKC, less than 1 nM at Recombinant human TRKA, less than 10 nM in test [1] and less than 1 nM at Recombinant human TRKB.

For `Fc1ccc(F)c([C@H]2C[C@H](F)CN2c2ccc3ncnc(-c4cn(C5CCNCC5)nn4)c3n2)c1` [Example 86, 6-((2R,4S)-2-(2,5-Difluorophenyl)-4-fluoropyrrolidin-1-yl)-4-(1-(piperidin-4-yl)-1H-1,2,3-triazol-4-yl)pyrido[3,2-d]pyrimidine], the half-inhibitory concentration (IC50) at Recombinant human TRKC is less than 1 nM; at Recombinant human TRKA it was less than 1 nM; in test [1], less than 10 nM; at Recombinant human TRKB, less than 10 nM.

For `O=C(O)[C@H]1CCN(c2ncc(-c3ncnc4ccc(N5C[C@@H](F)C[C@@H]5c5cc(F)ccc5F)nc34)cn2)C1` [Example 87, (S)-1-(5-(6-((2R,4S)-2-(2,5-difluorophenyl)-4-fluoropyrrolidin-1-yl)pyrido[3,2-d]primidin-4-yl)pyrimidin-2-yl)pyrrolidin-3-carboxylic acid], the IC50 (at Recombinant human TRKC; at Recombinant human TRKA; in test [1]; at Recombinant human TRKB) was less than 1 nM throughout.

In the case of `O=C(O)[C@@H]1CCN(c2ncc(-c3ncnc4ccc(N5C[C@@H](F)C[C@@H]5c5cc(F)ccc5F)nc34)cn2)C1` [Example 88, (R)-1-(5-(6-((2R,4S)-2-(2,5-difluorophenyl)-4-fluoropyrrolidin-1-yl)pyrido[3,2-d]primidin-4-yl)pyrimidin-2-yl)pyrrolidin-3-carboxylic acid], the IC50 (at Recombinant human TRKC; on Recombinant human TRKA; in test [1]; on Recombinant human TRKB) was less than 1 nM throughout.

As to `Fc1ccc(Cl)c([C@H]2CCCN2c2ccc3ncc(F)c(-c4cnn(C5CCNCC5)c4)c3n2)c1` [Example 89, (R)-2-(2-(2-Chloro-5-fluorophenyl)pyrrolidin-1-yl)-7-fluoro-8-(1-(piperidin-4-yl)-1H-pyrazol-4-yl)-1,5-naphthyridine], the IC50 on Recombinant human TRKC is less than 10 nM; at Recombinant human TRKA, less than 1 nM; in test [1], less than 1 nM; at Recombinant human TRKB it was less than 10 nM.

In the case of `Fc1cnc(Cl)c([C@H]2CCCN2c2ccc3ncc(F)c(-c4cnn(C5CCNCC5)c4)c3n2)c1` [Example 90, (R)-2-(2-(2-Chloro-5-fluoropyridin-3-yl)pyrrolidin-1-yl)-7-fluoro-8-(1-(piperidin-4-yl)-1H-pyrazol-4-yl)-1,5-naphthyridine], the IC50 at Recombinant human TRKC is less than 10 nM; at Recombinant human TRKA, less than 1 nM; in test [1] it was less than 1 nM; at Recombinant human TRKB, less than 10 nM.

With `Fc1ccc(F)c([C@H]2C[C@H](F)CN2c2ccc3ncnc(-c4cnc(C5CCNCC5)nc4)c3n2)c1` [Example 91, 6-((2R,4S)-2-(2,5-Difluorophenyl)-4-fluoropyrrolidin-1-yl)-4-(2-(piperidin-4-yl)pyrimidin-5-yl)pyrido[3,2-d]pyrimidine], the IC50 is less than 1 nM on Recombinant human TRKC, less than 1 nM at Recombinant human TRKA, less than 10 nM in test [1] and less than 1 nM at Recombinant human TRKB.

For `O=C1N(c2ccnc3ccc(N4C[C@@H](F)C[C@@H]4c4cc(F)ccc4F)nc23)CC12CCNCC2` [Example 94, 2-(6-((2R,4S)-2-(2,5-difluorophenyl)-4-fluoropyrrolidin-1-yl)-1,5-naphthyridin-4-yl)-2,7-diazaspiro[3.5] nonane-1-one], the IC50 (at Recombinant human TRKC; at Recombinant human TRKA; in test [1]; at Recombinant human TRKB) was less than 1 nM each time.

As for `O=c1n(-c2ccnc3ccc(N4C[C@@H](F)C[C@@H]4c4cc(F)ccc4F)nc23)ccn1C1CCNCC1` [Example 95, 1-(6-((2R,4S)-2-(2,5-difluorophenyl)-4-fluoropyrrolidin-1-yl)-1,5-naphthyridin-4-yl)-3-(piperidin-4-yl)-1,3-dihydro-2H-imidazol-2-one], the IC50 at Recombinant human TRKC was less than 1 nM; at Recombinant human TRKA it was less than 1 nM; in test [1], less than 1 nM; at Recombinant human TRKB, less than 10 nM.

With `O=c1n(-c2ncnc3ccc(N4C[C@@H](F)C[C@@H]4c4cc(F)ccc4F)nc23)ccn1C1CCNCC1` [Example 96, 1-(6-((2R,4S)-2-(2,5-difluorophenyl)-4-fluoropyrrolidin-1-yl)pyrido[3,2-d]pyrimidin-4-yl)-3-(piperidin-4-yl)-1,3-dihydro-2H-imidazol-2-one], the IC50 on Recombinant human TRKC is less than 10 nM; on Recombinant human TRKA it was less than 1 nM; in test [1], less than 10 nM; at Recombinant human TRKB, less than 10 nM.
